One experiment deals with T1, p-IRβ (Mus musculus, UniProt P15208).
T1 construct: from tissue; host or cells: skeletal muscle and liver of db/db mice
Nature of the experiment: Insulin mimicking effect in skeletal muscle and liver of db/db mice, Western blot and PCR: p-IRβ. It is filed as in vivo. To be noted: vs non-treated control group. As to the method: (§1) Insulin Mimicking Effect of COMPOUND I in Skeletal Muscle and Liver of db/db Mice
(§2) To further utilize the insulin mimetic effect of Compound I, the key proteins in PTP1B and PI3K/Akt signaling pathway were evaluated using Western blot and PCR after treatment with Compound I. Western blotting and PCR analysis have been carried out to verify the expression of PTP1B and IR β in skeletal muscle and liver to establish the inhibition effect of Compound I towards PTP1B.
(In general: A western blot detects proteins with antibodies after separation by electrophoresis.)

Experiment [1] relates to db/db diabetic mice. The experiment is described as follows: Effect on body weight, total cholesterol, plasma glucose and triglyceride levels of db/db diabetic mice. It is filed as in vivo. The source says:
Effect of Compound I on Body Weight Total Cholesterol, Plasma Glucose, and Triglyceride Levels of db/db Diabetic Mice
It is well-known that there is an increase of serum lipid concentration in people with diabetes.
db/db mouse is a genetic obesity diabetic animal model produced with the aid of the shortage of leptin receptor. The pathogenesis features of T2DM in db/db mice was similar to those in human type 2 diabetes, including hyperglycemia, obesity, and insulin resistance. Current years, db/db mice have been broadly used in animal experiments to set up the T2DM model. We have investigated whether Compound I include IR activators with insulin-mimetic and insulin-sensitizing activity by means of evaluating their effects on IR signaling. Compound I (100 mg/kg and 200 mg/kg b.wt) treatment for 7 days reduced food consumption and body weight in the db/db mice, an inherited obese animal model (FIG. 5, a-d). […] Based on these findings, further studies on Compound I have been carried out in the subsequent experiments to explore their inhibitory activity against PTP1B.

Experiment [2] has as its system IRS-1, IRS-2, PI3K, Glut4, Akt. Nature of the experiment: Liver insulin resistance in C57BL/6J-db/db mice: expression of insulin signaling genes. In kind it is in vivo. The settings on record: vs C57BL/6J-db/db control group, p<0.05. The source says: Effect of Compound I on Liver Insulin Resistance in the C57BL/6J-db/Dbmice
The expression of insulin signaling genes such as IRS-1, IRS-2, PI3K, Glut4, Akt in the livers of the db/db mice reduced noticeably when compared with that of the normal mice. There was a significant enhance within the activation of all the examined genes in the C57BL/6J-db/db treatment group compared to that of normal control group FIG. 8.

The test system of experiment [3] is db/db diabetic mice. The experiment is described as follows: Effect on body weight, total cholesterol, plasma glucose and triglyceride levels of db/db diabetic mice. In kind it is in vivo. To be noted: 100 and 200 mg/kg b.wt, 2 weeks, vs control mice.
For experiment [4], the system named is PTP1B. Nature of the experiment: Insulin mimicking effect in skeletal muscle and liver of db/db mice, Western blot and PCR: PTP1B. It is filed as in vivo. The settings on record: vs control group, p<0.01. As to the method: as §1, §2
The next experiment relates to insulin receptor (IR-β). Nature of the experiment: Insulin mimicking effect in liver and skeletal muscle of HFD+STZ mice, PCR analysis: IR-β. It is filed as in vivo. To be noted: dose-dependent. The source says: (§3) Insulin Mimicking Effect of Compound I in Liver and Skeletal Muscle of HFD+STZ Type II Diabetic Mice
(§4) In the insulin signaling pathway, protein tyrosine phosphatase 1B (PTP1B) considered playing a vital role in the intracellular signal transduction process and metabolism. There is compelling confirmation that PTP1B, is principally responsible for the dephosphorylation of insulin receptor (IR-β), as a result, leading to the block of insulin signaling transduction pathway. […] (FIG. 7, a & b)

Experiment [5] has as its system PTP1B. Nature of the experiment: Insulin mimicking effect in liver and skeletal muscle of HFD+STZ mice, PCR analysis: PTP1B. In kind it is in vivo. The settings on record: dose-dependent, p<0.05.
From the text: as §3, §4

Another experiment relates to PI3K, GLUT4. The experiment is described as follows: PI3K and GLUT4 gene expression in diabetic mice (discussion). In kind it is in vivo. The text has this:
Next, we examine the effect of COMPOUND Ion PTP-1B inhibition and activation of IR-β phosphorylation by PCR and Western blotting studies. In the current study, we used the type 2 diabetic C57BL/6J STZ, HFD+STZ C57BL/6J, db/db mouse model to assess the antihyperglycemic property. […] As shown in FIGS. 6&8, There is a diminish in the tyrosine phosphorylation levels of the IR β- in the skeletal muscle and liver of diabetic mice, involving the PTP1B function in all the diabetic-treated mice. According to Tagami et al. expression of PTP1B activity up regulated in the skeletal muscle and adipose tissue of Otsuka Long-Evans Tokush-in fat rats. Haj et al. established that the hepatic-specific over expression of PTP1B confirmed insulin resistance no longer merely in the liver but also in other tissues in PTP1B knockout mice. For that reason, PTP1B plays a main function in diabetic mice. When PTP1B gets activated, the insulin signaling transduction pathway blocked, and the level of plasma glucose is disturbed, ensuing in the increased plasma glucose level. […] The increased in the tyrosine phosphorylation expression level of the IR β-subunit in the skeletal muscle and liver of Compound I treated diabetic mice point out the enhancement of insulin sensitivity in the entire animal model tested. […]

The test system of another experiment is inflammatory parameters. The experiment is described as follows: Inflammatory mediators in HFD+STZ type II diabetic mice. It is filed as in vivo.
From the text: FIG. 7 depicts the Insulin mimicking effect of compound I in Liver and skeletal muscle of HFD+STZ type II diabetic mice • a. Insulin Mimetic Effect • b. Inflammatory mediators
as §4

Experiment [6] deals with HFD+STZ type II diabetic mice. The experiment is described as follows: Effect on body weight, plasma glucose, total cholesterol and triglyceride levels of HFD+STZ type II diabetic mice. In kind it is in vivo, C57BL/6J mice. The text has this:
Effect of Compound I on body weight, Total cholesterol, Plasma glucose, and triglyceride levels of HFD+STZ type II diabetic mice:
Eight weeks of dietary manipulation with high-fat diet increased the body weight in all the groups when compared to NPD group.
Type 2 diabetes mellitus and its related complications have arisen as serious health problems in modern societies. The cutting edge technology of drug development is to identify small molecule drugs helpful in controlling both diabetes and obesity. In this study, we assess the impact of a small molecule Compound I having insulin mimicking effect by inhibiting PTP-1B and activating IR-β phosphorylation in insulin-sensitive tissues by in vivo animal model. […] The induction of diabetes mellitus in mice confirmed by elevated levels of fasting plasma glucose. Plasma glucose level measured in normal and experimental mice.

The subject of another experiment is p-IRβ, IR. The experiment is described as follows: Phosphorylated insulin-signaling molecules in muscles and liver of diabetic mice (discussion). In kind it is in vivo. To be noted: oral administration, dose-dependent. The source says:
Next, we examine the effect of COMPOUND Ion PTP-1B inhibition and activation of IR-β phosphorylation by PCR and Western blotting studies. In the current study, we used the type 2 diabetic C57BL/6J STZ, HFD+STZ C57BL/6J, db/db mouse model to assess the antihyperglycemic property. […] As shown in FIGS. 6&8, There is a diminish in the tyrosine phosphorylation levels of the IR β- in the skeletal muscle and liver of diabetic mice, involving the PTP1B function in all the diabetic-treated mice. According to Tagami et al. expression of PTP1B activity up regulated in the skeletal muscle and adipose tissue of Otsuka Long-Evans Tokush-in fat rats. Haj et al. established that the hepatic-specific over expression of PTP1B confirmed insulin resistance no longer merely in the liver but also in other tissues in PTP1B knockout mice. For that reason, PTP1B plays a main function in diabetic mice. When PTP1B gets activated, the insulin signaling transduction pathway blocked, and the level of plasma glucose is disturbed, ensuing in the increased plasma glucose level. […] The increased in the tyrosine phosphorylation expression level of the IR β-subunit in the skeletal muscle and liver of Compound I treated diabetic mice point out the enhancement of insulin sensitivity in the entire animal model tested.

In experiment [7] the test system is IRS-1, IRS-2, PI3K, Glut4 and Akt. Nature of the experiment: Expression of diabetic-associated gene transcripts in streptozotocin-induced diabetic mice, semiquantitative RT-PCR. In kind it is in vivo. As to the method:
One of the mechanisms which can stimulate or enhance glucose uptake in cells is the elevated translocation of glucose transporter 4 (GLUT 4) from the intracellular site to the plasma membrane. […] The expression of diabetic-related, gluconeogenic and glycolytic genes, in streptozotocin-induced diabetic mice, were treated with Compound I was determined using semiquantitative RT-PCR. As the internal control, GAPDH the band density of each target gene normalized to the band density of GAPDH of the sample.

[8] abbreviates: 100 and 200 mg/kg b.wt, treatment for 7 days.
Where [9] appears, read: 7 days after treatment, vs control mice.
[10] abbreviates: Compound I, dose-dependent, high dose better (P<0.05).
The mark [11] stands for this setting: 14 days after treatment, dose-dependent, vs control mice.
[12] abbreviates: C57BL/6J mice fed high-fat diets, 7 days after injection, vs control mice.
Where [13] appears, read: low and high doses (100 and 200 mg/kg), vs diabetic group.
The mark [14] stands for this setting: metformin-treated group vs model group.
Setting [15] is: Metformin 250 mg/kg b.wt, vs diabetic group.

Entries after “also recorded” stand apart in the source; their conditions may differ.

T1 sequence (P15208 753-1372 limits assumed): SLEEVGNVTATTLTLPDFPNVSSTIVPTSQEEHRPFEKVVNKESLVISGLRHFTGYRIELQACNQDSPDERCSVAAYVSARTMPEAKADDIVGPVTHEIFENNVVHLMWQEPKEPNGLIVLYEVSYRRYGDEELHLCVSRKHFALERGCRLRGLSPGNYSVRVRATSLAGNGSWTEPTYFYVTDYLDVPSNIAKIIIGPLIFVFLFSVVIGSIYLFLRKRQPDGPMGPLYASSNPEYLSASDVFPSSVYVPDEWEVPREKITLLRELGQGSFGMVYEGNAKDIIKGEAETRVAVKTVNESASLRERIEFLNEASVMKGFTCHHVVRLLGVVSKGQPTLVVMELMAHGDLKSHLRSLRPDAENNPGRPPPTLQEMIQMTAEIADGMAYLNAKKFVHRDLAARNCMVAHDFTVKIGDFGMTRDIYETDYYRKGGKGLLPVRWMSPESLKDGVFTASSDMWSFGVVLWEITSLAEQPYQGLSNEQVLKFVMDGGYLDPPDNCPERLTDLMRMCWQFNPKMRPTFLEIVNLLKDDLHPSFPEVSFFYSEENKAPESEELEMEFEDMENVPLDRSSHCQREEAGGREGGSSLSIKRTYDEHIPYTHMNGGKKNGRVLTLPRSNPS
T1 sequence (P15208 28-748 partner limits assumed): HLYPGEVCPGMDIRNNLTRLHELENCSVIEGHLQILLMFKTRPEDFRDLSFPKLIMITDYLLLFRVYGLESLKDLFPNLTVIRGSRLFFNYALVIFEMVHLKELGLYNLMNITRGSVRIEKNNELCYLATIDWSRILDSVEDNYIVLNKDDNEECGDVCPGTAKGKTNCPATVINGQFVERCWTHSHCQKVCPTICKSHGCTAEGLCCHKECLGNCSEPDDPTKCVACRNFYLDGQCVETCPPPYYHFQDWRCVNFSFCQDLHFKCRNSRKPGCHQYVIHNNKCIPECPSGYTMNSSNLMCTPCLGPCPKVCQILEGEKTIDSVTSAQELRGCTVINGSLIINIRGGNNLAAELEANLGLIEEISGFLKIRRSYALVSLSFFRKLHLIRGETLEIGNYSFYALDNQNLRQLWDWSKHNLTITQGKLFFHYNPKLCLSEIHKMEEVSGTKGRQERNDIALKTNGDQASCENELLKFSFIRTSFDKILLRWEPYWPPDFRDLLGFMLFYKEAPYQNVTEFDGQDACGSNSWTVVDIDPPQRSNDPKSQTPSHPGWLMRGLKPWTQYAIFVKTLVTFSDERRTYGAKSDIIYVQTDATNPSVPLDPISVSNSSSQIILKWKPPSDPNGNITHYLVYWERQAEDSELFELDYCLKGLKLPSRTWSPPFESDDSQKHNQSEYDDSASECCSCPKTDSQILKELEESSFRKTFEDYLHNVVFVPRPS

For the compound `COc1cc(CO)cc2c1[nH]c1c(/C(C)=C/C(=O)O)cccc12` [Compound I, (2E)-3-[6-(hydroxymethyl)-8-methoxy-9H carbazol-1-yl]but-2-enoic acid], the p-IRβ entry on p-IRβ is “significantly increased”. Also, the “free fatty acids levels” value with db/db diabetic mice [1] (100 and 200 mg/kg b.wt, 7 days, vs normal control) was “reduced”. Moreover, in the experiment on db/db diabetic mice [1] (setting [8]), the body weight entry is “reduced” and the food consumption result is listed as “reduced”. Moreover, in the experiment with db/db diabetic mice [1] (setting [9]), the Fasting plasma glucose entry is on record as “markedly lower; also recorded: reduced”, the insulin entry is on record as “markedly lower; also recorded: reduced” and the triglyceride levels result is listed as “markedly lower; also recorded: reduced”. For the same compound, in the experiment with db/db diabetic mice [1] (setting [10]), the total cholesterol concentration result is listed as “lowered” and the triglycerides concentration result is recorded as “lowered”. The “expression of all genes involved in insulin signaling pathway” value in [2] was “notably enhanced”. In addition, the body weights result with db/db diabetic mice [3] is “significantly decreased”. Further, the food intake result in the experiment on db/db diabetic mice [3] (p>0.05) is listed as “extensively lower”. For the same compound, the PTP1B expression result with PTP1B [4] is given as “downregulated substantially”. The IR-β levels entry in the experiment on insulin receptor (IR-β) is on record as “concomitant increase”. The “expression of PTP1B” value in the experiment with PTP1B [5] is “significantly decreased”. Also, the “PI3K and GLUT4 expression levels” value in the experiment with PI3K, GLUT4 (in contrast to diabetic mice) is given as “enhanced significantly”. For the same compound, in the experiment on PI3K, GLUT4 (vs normal control group), the “GLUT4 mRNA expression” value is “extremely expressed”. Further, the “expression of inflammatory parameters” value with inflammatory parameters is listed as “significantly reduced”. Besides, the food intake entry in [6] (100 and 200 mg/kg b.wt, C57BL/6J mice fed high-fat diets for 7 days, vs control mice) is on record as “extensively decreased”. Besides, in experiment [6] (setting [11]), the Fasting plasma glucose result was “markedly diminished”, the insulin levels result was “markedly diminished; also recorded: markedly reduced” and the triglyceride levels result is reported as “markedly diminished; also recorded: markedly reduced”. In experiment [6] (setting [12]), the “Fasting plasma glucose levels” value is listed as “markedly diminished”, the insulin levels result is listed as “markedly diminished” and the triglyceride levels entry was “markedly diminished”. In experiment [6] (C57BL/6J mice fed high-fat diets, 7 days, vs normal control mice), the body weights result is “widely dropped”. The food intake result in experiment [6] (Compound I 100 mg/kg and 200 mg/kg b.wt, 14 days, C57BL/6J mice fed high-fat diets, vs control mice, p<0.001) was “drastically lower”. Moreover, the body weights result in [6] (Compound I 100 and 200 mg/kg b.wt, 14 days, vs control mice) is given as “significantly reduce”. Moreover, in experiment [6] (setting [13]), the “decrease in Plasma glucose levels” value is “approximately two fold”, the “decrease in triglycerides levels” value was “approximately two fold” and the “total cholesterol levels reduced” value came out at 2.5 fold. Besides, in experiment [6] (oral 100 mg/kg and 200 mg/kg b.wt, STZ-treated diabetic mice), the plasma glucose level entry is “highly significant effect by reducing”. In addition, in the experiment on p-IRβ, IR, the “expression level of proteins (p-IRβ, IR)” value was “significantly augmented”. Besides, in experiment [7] (Compound I 100 mg/kg, Liver tissue), the “expression of all the gene transcripts, fold increased expression” value is recorded as approximately 2.5 fold. Further, the “expression of all the gene transcripts, fold change” value in experiment [7] (Compound I 100 mg/kg, skeletal muscle) was approximately 3.5 fold change.

In the case of `CN(C)C(=N)N=C(N)N` [Metformin, reference compound], in the experiment on db/db diabetic mice [1] (setting [14]), the “serum total cholesterol levels” value is given as “lower than in the model group” and the serum triglyceride levels result is recorded as “lower than in the model group”. Besides, in experiment [6] (setting [15]), the glucose entry is recorded as “markedly reduced”, the total cholesterol entry is “markedly reduced” and the triglycerides entry is listed as “markedly reduced”. In [7] (Metformin-treated groups, skeletal muscle and liver tissue, p<0.05), the “levels of insulin-signaling gene expression” value was “increased levels”.

For the origin of these results see patent US20260130888A1, “NOVEL THERAPEUTIC MOLECULE” (Pillai Universal LLC, priority 2022, published 2026).
